Values after ≈ are worked out from the molar mass of the structure shown. Values joined by “and” are separate entries in the source; they are usually repeats but may differ in a detail not shown here. Equal values may be shown once. Read-outs that look alike come from different tables or passages of the source.
How the values were obtained:
[1] = tested on: E. coli ATCC 25922; assay: MIC, broth microdilution (CLSI); assay type: cell-based, Escherichia coli; details: for MIC: Escherichia coli
Description: (§1) All bacterial strains (see description and sources Table S1) were stored at −80 °C, and grown on tryptone soya agar (TSA) at 35 °C. The iron-deprived (ID)-MHBCA (cation-adjusted Muller-Hinton Broth, Becton Dickinson, Mississauga, ON, Canada) medium was prepared as reported by refs. [21],[50]. Briefly, MHBCA was treated with 10% Chelex® 50-100 mesh (Sigma) and stirred for 6 h at room temperature. The resin was removed by filtration. Divalent Ca^2+ (CaCl2), Mg^2+ (MgCl2), and Zn^2+(ZnSO4), were then added in the iron-depleted medium at 22, 12, and 1 μg/ml respectively. Finally, the pH was adjusted to 7.3, and the medium was sterilized with a 0.2-μm filter. Regular MHBCA (i.e., not treated with Chelex®) was used to compare the inhibitory activity of conjugates in iron-sufficient conditions.
(§2) Minimal inhibitory concentrations (MICs) were performed using a broth microdilution technique according to the Clinical and Laboratory Standards Institute (CLSI) guidelines. MICs were determined in MHBCA and in ID-MHBCA. To check the impact of β-lactamases, MICs in the presence of a β-lactamase inhibitor were also determined. The inhibitor was homogenized at 2X the final concentration and added to the bacterial inoculum just before distributing cells into the wells containing the drug dilutions. The final concentration of each inhibitor was 4 μg/mL for clavulanic acid (tested against K. pneumoniae) and 200 μg/mL for 3-aminophenylboronic acid (tested against P. aeruginosa and A. baumannii).

[2] = tested on: K. pneumoniae ATCC 13883; assay: MIC, broth microdilution (CLSI); assay type: cell-based, Klebsiella pneumoniae; details: for MIC with β-lactamase inhibitor (βI): + 4 μg/mL clavulanic acid
Description: as §1, with “conditions. The resin used for Chelex treatment was always fresh and had never been regenerated, ensuring consistent iron removal.” for “conditions.”
as §2

[3] = tested on: E. coli ΔcirA; assay: MIC, Keio mutant; assay type: cell-based, Escherichia coli; details: Escherichia coli
Description: as §1, §2

[4] = tested on: E. coli ΔfhuA; assay: MIC, Keio mutant; assay type: cell-based, Escherichia coli; details: Escherichia coli, ID-MHBCA
Description: as §1, §2

[5] = tested on: E. coli Δfiu; assay: MIC, Keio mutant; assay type: cell-based, Escherichia coli
Description: as §1, §2

[6] = tested on: E. coli lptD4213; assay: MIC, hyperpermeable mutant; assay type: cell-based, Escherichia coli
Description: as §1, with “conditions. The resin used for Chelex treatment was always fresh and had never been regenerated, ensuring consistent iron removal.” for “conditions.”
as §2

[7] = target: PBP1a/1b; assay: Membrane PBP binding assay, competition with Bocillin FL; details: K. pneumoniae ATCC 13883 membranes
Description: (§3) Membrane extracts containing PBPs were obtained as described above. Briefly, all species were grown in 1 L of TSB until the OD600 reached 0.9. The washed pellet was incubated with lysozyme (400 μg/mL), DNase (10 μg/mL) RNase(10 μg/mL) and anti-protease cocktail (200 mg/20 mL). Lysis was done with a French press (20,000 psi) and membrane protein were pelleted by ultracentrifugation steps (100,000 × g). The pellet was suspended in a minimal volume (300–500 μL) of KP 0.05 M buffer at pH 7. The protein concentration in the membrane preparations was determined with the Micro BCA TM Protein Assay Kit (Thermo Fisher Scientific, Rockford, IL) using bovine serum albumin as a standard.
(§4) The PBP binding assay was done as described previously[36],[56],[57]. For each antibiotic concentration tested, a quantity of 25 to 40 μg of membrane preparation was used as the source of PBPs, depending on the species. For the purified PaPBP3, 150 ng was used in the assay. First, increasing concentrations of the test antibiotic was added to the membrane or purified PaPBP3 preparations and incubated for 10 min at 30 °C. The reporter molecule Bocillin FL was then added at 12.5 μM for the membrane PBPs preparations and at 500 nM for the pure PaPBP3 samples for an additional 20 min at 30 °C. All reactions were stopped with the addition of the Laemmli-loading buffer (Bio-Rad) containing fresh β-mercaptoethanol (Sigma). All reactions were then heated at 100°C for 3 min before migration on SDS-polyacrylamide discontinuous gel system (7.5% stacking and 10% separating). Control samples without Bocillin FL were also included to highlight autofluorescent proteins that are not PBPs.
(§5) To be able to visualize labeled PBPs after electrophoresis, gels were rinsed in water and fixed in a solution of 50% methanol and 7% acetic acid for 30 min. The fluorescent images of gels were obtained with the Typhoon FLA 9500 instrument (GE-Healthcare Bio-Sciences Inc., Baie-d’Urfé, QC, CA) using a 473 nm excitation wavelength. To obtain quantifiable data, the software Quantity One 1D analysis was used (version 4.6.6; Bio-Rad Laboratories, Richmond, CA). The volume (intensity × constant area) of each PBP was measured. […] All IC50 data were obtained from at least two independent PBP binding assays using two different sets of compound concentrations using a linear regression. The PBP profiles were confirmed, and the PBP numbering were determined using published data and individual molecular weights. […] For example, amdinocillin (Sigma) was used for PBP2 identification. […] The IC50 for PBP 2 of P. aeruginosa was measured by including the SDS-PAGE comigrating autofluorescent protein in the background, as done previously.

[8] = target: T1, PBP3 (Pseudomonas aeruginosa, UniProt G3XD46); assay: as above
T1 construct: using bacterial membranes as the source of PBPs; endogenous in cells; host or cells: P. aeruginosa ATCC 27853 membrane preparation
Description: as §3, §4, §5

[9] = ATCC25922, ID-MHBCA + 1 µg/mL supplemental iron
[10] = ID-MHBCA (−), 0 µg/mL supplemental iron
[11] = Klebsiella pneumoniae, ATCC13883, ID-MHBCA (−), 0 µg/mL supplemental iron
[12] = Klebsiella pneumoniae, ATCC13883, ID-MHBCA + 1 µg/mL supplemental iron
[13] = Klebsiella pneumoniae, ATCC13883, MHBCA (+)
[14] = Escherichia coli, LPTD4213, lptD4213, ID-MHBCA (−)
[15] = Escherichia coli, LPTD4213, lptD4213, MHBCA (+)

T1 sequence (G3XD46 whole entry): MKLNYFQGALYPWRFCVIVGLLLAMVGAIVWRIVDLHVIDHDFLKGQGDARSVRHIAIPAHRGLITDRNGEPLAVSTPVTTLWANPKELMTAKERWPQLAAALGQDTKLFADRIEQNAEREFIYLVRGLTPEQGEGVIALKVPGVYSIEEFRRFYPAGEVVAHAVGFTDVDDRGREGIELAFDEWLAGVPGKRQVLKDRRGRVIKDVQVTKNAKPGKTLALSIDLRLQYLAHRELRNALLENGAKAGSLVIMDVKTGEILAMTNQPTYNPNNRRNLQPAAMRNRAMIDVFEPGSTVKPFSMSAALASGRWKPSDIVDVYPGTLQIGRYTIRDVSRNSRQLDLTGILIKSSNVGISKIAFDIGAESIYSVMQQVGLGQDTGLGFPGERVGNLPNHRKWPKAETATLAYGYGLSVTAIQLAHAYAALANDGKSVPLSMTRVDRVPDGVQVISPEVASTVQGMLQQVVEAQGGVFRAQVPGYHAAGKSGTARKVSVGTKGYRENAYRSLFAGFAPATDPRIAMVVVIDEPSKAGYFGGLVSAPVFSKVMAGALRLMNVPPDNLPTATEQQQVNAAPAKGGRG

| SMILES | MIC [1, 9] [µM] | MIC [2, 10] [µM] | MIC with β-lactamase inhibitor (βI) ([2]; ID-MHBCA) [µM] | MIC [2, 11] [µM] | MIC [2, 12] [µM] | MIC [2, 13] [µM] | MIC ([2]; MHBCA (+)) [µM] | MIC with β-lactamase inhibitor (βI) ([2]; MHBCA) | MIC ([3]; ID-MHBCA) [µM] | MIC [4] [µM] | MIC ([5]; Escherichia coli, ID-MHBCA) [µM] | MIC [6, 14] [µM] | MIC [6, 15] [µM] | IC50 [7] [nM] | further results |
| --- | --- | --- | --- | --- | --- | --- | --- | --- | --- | --- | --- | --- | --- | --- | --- |
| CC1(C)S[C@@H]2[C@H](NC(=O)[C@H](N)c3ccccc3)C(=O)N2[C@H]1C(=O)O [AMP, ampicillin, reference compound] | 25 | >200 | 6.3 | > 200 | > 200 | > 200 | >200 | 6.3 μM and 6.3^d μM | 25 (≈ 8.74 µg/mL) | 25 (≈ 8.74 µg/mL) | 25 (≈ 8.74 µg/mL) | 0.4 (≈ 0.14 µg/mL) | 0.4 (≈ 0.14 µg/mL) | 8000 ± 1000 | MIC ([6]; lptD4213, MHBCA (+)): 0.4 µM (≈ 0.14 µg/mL); IC50 [8]: 240 ± 80 nM |
| CC1(C)SC2C(NC(=O)C(NC(=O)CN(CCCCNC(=O)c3cccc(O)c3O)C(=O)c3cccc(O)c3O)c3ccccc3)C(=O)N2C1C(=O)O (centres unmarked) [BAMP, bis-catechol (azotochelin)-ampicillin] | 0.2 | >200 | 0.4 | > 200 | > 200 | > 200 | >200 | 1.6 µM | 0.2 to 13 (≈ 0.15 to 9.75 µg/mL) | 0.1 (≈ 0.075 µg/mL) | 0.024 (≈ 0.018 µg/mL) | 0.024 (≈ 0.018 µg/mL) | 0.05 (≈ 0.0375 µg/mL) | 4240 ± 70 | MIC ([1]; ATCC25922, ID-MHBCA + 0.1 µg/mL supplemental iron): 0.1 µM; MIC ([1]; ATCC25922, MHBCA (+)): 0.1 µM (≈ 0.075 µg/mL); MIC ([1]; ATCC25922, iron-deprived ID-MHBCA (−), 0 µg/mL supplemental iron): 0.05 µM (≈ 0.0375 µg/mL); MIC ratio unconjugated β-lactam/conjugate ([1]; ID-MHBCA): 256; MIC ratio 0/1 ([1]; ID-MHBCA, 0 and 1 µg/mL supplemental iron (Table S2)): 4; MIC ratio 1/0 ([1]; ID-MHBCA, 1 versus 0 µg/mL supplemental iron (peer review file table)): 4; MIC ratio unconjugated β-lactam/conjugate (AMP/BAMP, LOR/BLOR, CEF/MCEF) ([1]; MHBCA): 128; MIC ratio unconjugated β-lactam/conjugate ([2]; ID-MHBCA): No activity; MIC ratio unconjugated β-lactam/conjugate ([2]; MHBCA): No activity; MIC ([3]; MHBCA): 13 µM (≈ 9.75 µg/mL); MIC ([5]; Escherichia coli, MHBCA): 0.1 to 0.4 µM (≈ 0.075 to 0.3 µg/mL); MIC ([5]; MHBCA): 0.2 µM (≈ 0.15 µg/mL); IC50 value ratio βL/SID-βL, PBP3 ([8]; P. aeruginosa ATCC 27853, membrane): 1.5; IC50 ([8]; P. aeruginosa ATCC 27853 membranes, read-out: IC50 PBP3): 160 ± 10 nM |
